Assay results reported in BigSolDB 2.1.

O=C(O)CCCC(=O)O
Settings | solubility (mole fraction)
in cyclohexanone, 295.35 K | 0.17
in cyclohexanone, 299.35 K | 0.184
in cyclohexanone, 303.65 K | 0.198
in cyclohexanone, 307.75 K | 0.228
in cyclohexanone, 311.85 K | 0.251
in methanol, 287.05 K | 0.204
in methanol, 295.55 K | 0.239
in methanol, 299.15 K | 0.256
in methanol, 302.85 K | 0.274
in methanol, 306.95 K | 0.294
in methanol, 310.15 K | 0.316
in methanol, 313.45 K | 0.34
in methanol, 317.15 K | 0.37
in methanol, 321.15 K | 0.403
in methanol, 324.85 K | 0.436
in methanol, 328.95 K | 0.472
